From ChEMBL document CHEMBL1806423, “Cytotoxic 1,2-dialkynylimidazole-based aza-enediynes: aza-Bergman rearrangement rates do not predict cytotoxicity” (J Med Chem, 2011)
The source made the active and inactive calls. The rule behind the calls is not given here.

How the values were obtained:
A549 = assay: Cytotoxicity against human A549 cells after 72 hrs by alamar blue assay; format: functional, cell-based; settings: A549, 72 h
Albumin = Albumin (Bos taurus, UniProt P02769); assay: Induction of cleavage of bovine serum albumin at 500 uM after 16 hrs using Coomassie blue by SDS-PAGE; settings: cattle
Albumin, sequence (P02769 whole entry): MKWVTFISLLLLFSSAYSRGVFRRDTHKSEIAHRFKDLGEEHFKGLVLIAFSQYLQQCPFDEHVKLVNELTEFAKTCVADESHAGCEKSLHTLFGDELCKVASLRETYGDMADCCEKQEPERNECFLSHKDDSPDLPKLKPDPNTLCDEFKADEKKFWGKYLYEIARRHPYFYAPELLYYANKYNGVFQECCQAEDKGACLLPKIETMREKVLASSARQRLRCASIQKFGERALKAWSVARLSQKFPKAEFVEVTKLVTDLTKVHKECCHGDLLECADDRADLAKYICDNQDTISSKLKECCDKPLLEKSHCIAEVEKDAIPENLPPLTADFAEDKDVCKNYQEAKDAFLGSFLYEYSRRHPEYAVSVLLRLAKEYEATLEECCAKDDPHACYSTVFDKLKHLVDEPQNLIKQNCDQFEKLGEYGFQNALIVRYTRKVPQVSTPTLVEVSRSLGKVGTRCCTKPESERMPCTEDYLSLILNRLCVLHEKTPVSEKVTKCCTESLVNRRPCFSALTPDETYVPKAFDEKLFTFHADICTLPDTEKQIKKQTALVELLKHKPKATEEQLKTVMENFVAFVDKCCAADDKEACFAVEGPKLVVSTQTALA

Nucleic Acid = assay: Induction of DNA cleavage of supercoiled phiX174 plasmid DNA assessed as relaxed DNA at 100 uM after 16 hrs by gel electrophoresis; format: nucleic-acid assay; settings: Enterobacteria phage phiX174
[1] = Thermal stability of the compound assessed as half life at 110 degC; format: physicochemical

Activity (Albumin)	Activity (Nucleic Acid)	half-life [1] [h]	Compound	IC50 (A549) [µM]
–	–	–	C#Cn1cc(-c2ccc(F)cc2)nc1C#CCCO	2.6
–	–	–	C#Cc1nccn1C#Cc1ccccc1	5
–	–	–	C#Cn1cnc(-c2ccccc2)c1	1.1
–	–	–	OCC#Cc1nccn1C#CCO	1.9
Not Active	inactive	32	C#Cn1ccnc1C#Cc1ccc([N+](=O)[O-])cc1	0.12
–	–	–	C#Cn1ccnc1C#Cc1cc(C(F)(F)F)cc(C(F)(F)F)c1	2.5
–	–	–	C#Cn1ccnc1C#Cc1ccc(C(F)(F)F)cc1	6
–	–	–	C#Cn1ccnc1C#Cc1ccc(C(C)=O)cc1	0.5
–	–	16	C#Cn1ccnc1C#Cc1ccc(C(C)(C)C)cc1	2.5
–	–	–	COc1ccc(C#Cc2nccn2C)cc1	> 15
–	–	–	C#Cn1c(C#Cc2ccc(OC)cc2)nc2ccccc21	2.9
–	–	–	C(#Cn1ccnc1CCc1ccccc1)c1ccccc1	> 15
Not Active	inactive	–	C#Cc1nc(-c2ccc(F)cc2)cn1C#C	2.6
–	–	–	C#Cn1ccnc1C#CCOC	1
–	–	–	C#Cc1nc2ccccc2n1C#C	2
–	–	–	COc1ccc(C#Cc2nccn2/C=C\Sc2ccccc2)cc1	10.1
Not Active	inactive	17	C#Cn1ccnc1C#Cc1ccc(OC)cc1	0.5
–	–	–	C#Cn1ccnc1C#Cc1ccccc1	6
–	–	–	C(#Cn1ccnc1)c1ccccc1	9.2
–	–	–	C#Cn1cc(-c2ccccc2)nc1C#Cc1ccc(OC)cc1	2
–	–	–	C#Cc1nc(-c2ccccc2)cn1C#C	2.5
